Legend:
Assay type in all cases: functional
[1] = system: Spirodela polyrhiza; assay: Bleaching herbicidal activity in Spirodela polyrhiza fronds cultured in compound-containing in medium assessed as chlorophyll inhibition at 10 ug/ml after 7 days; conditions: 168 h
[2] = system: Amaranthus retroflexus; assay: Pre-emergence herbicidal activity against Amaranthus retroflexus under greenhouse condition at 750 g /ha measured after 24 days by spray method; conditions: 576 h, read-out: GI
[3] = system: Brassica rapa subsp. oleifera; assay: Pre-emergence herbicidal activity against Brassica rapa subsp. oleifera under greenhouse condition at 750 g /ha measured after 24 days by spray method; conditions: 576 h, read-out: GI
[4] = system: Echinochloa crus-galli; assay: Pre-emergence herbicidal activity against Echinochloa crus-galli (barnyard grass) under greenhouse condition at 750 g /ha measured after 24 days by spray method; conditions: 576 h, read-out: GI
[5] = system: Spirodela polyrhiza; assay: Bleaching herbicidal activity in Spirodela polyrhiza fronds cultured in compound-containing in medium assessed as chlorophyll inhibition at 1 ug/ml after 7 days; conditions: 168 h
[6] = system: Digitaria; assay: Pre-emergence herbicidal activity against Digitaria adscendens under greenhouse condition at 750 g /ha measured after 24 days by spray method; conditions: in Digitaria adscendens, 576 h, read-out: GI
[7] = system: Brassica rapa subsp. oleifera; assay: Post-emergence herbicidal activity against one-leaf stage Brassica rapa subsp. oleifera under greenhouse condition at 750 g /ha measured after 24 days by spray method; conditions: 576 h, read-out: GI
[8] = system: Echinochloa crus-galli; assay: Post-emergence herbicidal activity against one-leaf stage of Echinochloa crus-galli (barnyard grass) under greenhouse condition at 750 g /ha measured after 24 days by spray method; conditions: 576 h, read-out: GI
[9] = system: Amaranthus retroflexus; assay: Post-emergence herbicidal activity against one-leaf stage of Amaranthus retroflexus under greenhouse condition at 750 g /ha measured after 24 days by spray method; conditions: 576 h, read-out: GI
[10] = system: Digitaria; assay: Post-emergence herbicidal activity against one-leaf stage of Digitaria adscendens under greenhouse condition at 750 g /ha measured after 24 days by spray method; conditions: in Digitaria adscendens, 576 h, read-out: GI

Row | Compound | inhibition at 10 µg/mL [1] | inhibition of growth at 750 g/ha [2] | inhibition of growth at 750 g/ha [3] | inhibition of growth at 750 g/ha [4] | inhibition at 1 µg/mL [5] | inhibition of growth at 750 g/ha [6] | inhibition of growth at 750 g/ha [7] | inhibition of growth at 750 g/ha [8] | inhibition of growth at 750 g/ha [9] | inhibition of growth at 750 g/ha [10]
1 | Cc1cc(-c2cccc(C(F)(F)F)c2)c(Oc2ccccc2C)nn1 | 73% | 0% | 0% | 0% | 8% | 7% | 55% | 24% | 50% | 11%
2 | COc1cccc(COc2nnc(C)cc2-c2cccc(C(F)(F)F)c2)c1 | 23% | 0% | 0% | 20% | 5% | 0% | 9% | 5% | 12% | 0%
3 | Cc1cc(-c2cccc(C(F)(F)F)c2)c(OCc2cccc(Br)c2)nn1 | 83% | 0% | 0% | 7% | 66% | 0% | 65% | 4% | 39% | 3%
4 | Cc1cc(-c2cccc(C(F)(F)F)c2)c(OCc2cccc(Cl)c2)nn1 | 45% | 18% | 0% | 36% | 29% | 2% | 33% | 0% | 31% | 0%
5 | Cc1ccc(Oc2nnc(C)cc2-c2cccc(C(F)(F)F)c2)c(C)c1 | 41% | 0% | 0% | 15% | 0% | 0% | 45% | 18% | 64% | 19%
6 | Cc1cc(-c2cccc(C(F)(F)F)c2)c(Oc2ccc(C(C)(C)C)cc2)nn1 | 35% | 0% | 1% | 0% | 0% | 4% | 44% | 33% | 38% | 0%
7 | Cc1cc(-c2cccc(C(F)(F)F)c2)c(OCc2ccc(Cl)cc2Cl)nn1 | 44% | 3% | 2% | 18% | 38% | 0% | 43% | 0% | 35% | 0%
8 | Cc1cc(-c2cccc(C(F)(F)F)c2)c(OCc2ccccc2F)nn1 | 71% | 4% | 28% | 13% | 65% | 10% | 79% | 19% | 39% | 0%
9 | COc1ccc(COc2nnc(C)cc2-c2cccc(C(F)(F)F)c2)cc1 | 72% | 0% | 0% | 39% | 0% | 48% | 13% | 0% | 16% | 20%
10 | Cc1cc(-c2cccc(C(F)(F)F)c2)c(Oc2ccccc2F)nn1 | 66% | 23% | 4% | 6% | 63% | 11% | 69% | 5% | 73% | 16%
11 | Cc1cccc(COc2nnc(C)cc2-c2cccc(C(F)(F)F)c2)c1 | 46% | 0% | 0% | 10% | 43% | 0% | 13% | 0% | 22% | 0%
12 | Cc1cc(-c2cccc(C(F)(F)F)c2)c(Oc2ccccc2Br)nn1 | 78% | 0% | 0% | 0% | 0% | 7% | 34% | 30% | 0% | 21%
13 | Cc1cc(-c2cccc(C(F)(F)F)c2)c(Oc2ccccc2C(F)(F)F)nn1 | 37% | 0% | 10% | 11% | 32% | 0% | 46% | 12% | 3% | 0%
14 | Cc1cc(-c2cccc(C(F)(F)F)c2)c(OCc2ccc(F)cc2)nn1 | 87% | 8% | 8% | 24% | 76% | 0% | 87% | 2% | 41% | 56%
15 | Cc1cc(-c2cccc(C(F)(F)F)c2)c(Oc2c(C)cccc2C)nn1 | 9% | 19% | 0% | 2% | 8% | 13% | 0% | 0% | 34% | 0%
16 | COc1ccccc1COc1nnc(C)cc1-c1cccc(C(F)(F)F)c1 | 72% | 0% | 0% | 0% | 18% | 33% | 16% | 1% | 25% | 10%
17 | Cc1cc(-c2cccc(C(F)(F)F)c2)c(OCc2ccc(Cl)cc2)nn1 | 66% | 9% | 17% | 21% | 53% | 6% | 72% | 0% | 45% | 0%
18 | Cc1cc(-c2cccc(C(F)(F)F)c2)c(Oc2cccc(Cl)c2)nn1 | 72% | 0% | 11% | 6% | 72% | 7% | 100% | 57% | 63% | 74%
19 | Cc1cc(C)cc(Oc2nnc(C)cc2-c2cccc(C(F)(F)F)c2)c1 | 63% | 10% | 0% | 10% | 42% | 11% | 56% | 6% | 8% | 0%
20 | Cc1cc(-c2cccc(C(F)(F)F)c2)c(OCc2ccc(N(C)C)cc2)nn1 | 97% | 11% | 4% | 17% | 64% | 6% | 7% | 0% | 21% | 11%
21 | Cc1ccc(COc2nnc(C)cc2-c2cccc(C(F)(F)F)c2)cc1 | 31% | 9% | 0% | 28% | 20% | 4% | 41% | 6% | 22% | 0%
22 | Cc1cc(-c2cccc(C(F)(F)F)c2)c(OCc2c(Cl)cccc2Cl)nn1 | 26% | 15% | 2% | 1% | 4% | 41% | 20% | 4% | 34% | 0%

Source: ChEMBL document CHEMBL3045111, “Synthesis and herbicidal activities of novel 3-(substituted benzyloxy or phenoxy)-6-methyl-4-(3-trifluoromethylphenyl)pyridazine derivatives” (2012)
